What all share (assay): relative viability (nuclei count vs DMSO), 5 days (fraction); higher = more cells survive
Compound in experiment [1]: CC1=CC(=NN1)NC2=CC(=NC(=N2)/C=C/C3=CC=CC=C3)N4CCN(CC4)C + N=C(N)NC(=N)NCCc1ccccc1 [Phenformin] (partner 250 µM)
In short, it runs like this: (§1)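 Relative viability was taken as the ratio of nuclei in treated wells to nuclei in vehicle wells. Lung cancer cell lines in 1536-well plates received compounds by pin tool one day after seeding, either one drug alone or a fixed anchor-drug dose plus five library-drug doses (not always all listed) in √10 steps. Nuclei were counted on 4× images after 5 days of treatment, and values are medians of duplicate plates.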

Compound in the experiment “Bortezomib + Foretinib”: CC(C)C[C@H](NC(=O)[C@H](Cc1ccccc1)NC(=O)c1cnccn1)B(O)O [Bortezomib] + COc1cc2c(Oc3ccc(NC(=O)C4(C(=O)Nc5ccc(F)cc5)CC4)cc3F)ccnc2cc1OCCCN1CCOCC1 [Foretinib] (partner 0.25 µM)
In short, it runs like this:
as §1

Compound in the experiment “Obatoclax + Pemetrexed”: COC1=CC(c2cc3ccccc3[nH]2)=N/C1=C\c1[nH]c(C)cc1C [Obatoclax] + Nc1nc2[nH]cc(CCc3ccc(C(=O)N[C@@H](CCC(=O)O)C(=O)O)cc3)c2c(=O)[nH]1 [Pemetrexed] (partner 0.2 µM)
In short, it runs like this: as §1

Compound in the experiment “Bortezomib + Palbociclib”: CC(C)C[C@H](NC(=O)[C@H](Cc1ccccc1)NC(=O)c1cnccn1)B(O)O [Bortezomib] + CC(=O)c1c(C)c2cnc(Nc3ccc(N4CCNCC4)cn3)nc2n(C2CCCC2)c1=O [Palbociclib] (partner 0.5 µM)
In short, it runs like this:
as §1

RERF-LC-KJ: the relative viability is 0.417 in experiment [1] (first compound 0.08 µM); 0.457 in experiment [1] (first compound 0.253 µM); 0.372 in experiment [1] (first compound 0.8 µM); 0.256 in experiment [1] (first compound 2.53 µM); 0.245 in experiment [1] (first compound 8 µM); 0.944 with Bortezomib + Foretinib (first compound 0.0002 µM). Moreover, the relative viability came out at 0.886 with Bortezomib + Foretinib (first compound 0.000632 µM); 0.929 with Bortezomib + Foretinib (first compound 0.002 µM); 0.761 with Bortezomib + Foretinib (first compound 0.006325 µM); 0.221 in the experiment with Bortezomib + Foretinib (first compound 0.02 µM); 0.466 with Obatoclax + Pemetrexed (first compound 0.01 µM); 0.461 in the experiment with Obatoclax + Pemetrexed (first compound 0.03162 µM). For the same cell line, the relative viability came out at 0.448 in the experiment with Obatoclax + Pemetrexed (first compound 0.1 µM); 0.457 in the experiment with Obatoclax + Pemetrexed (first compound 0.3162 µM); 0.45 in the experiment with Obatoclax + Pemetrexed (first compound 1 µM); 1.18 in the experiment with Bortezomib + Palbociclib (first compound 0.0002 µM); 1.03 with Bortezomib + Palbociclib (first compound 0.000632 µM); 1.05 with Bortezomib + Palbociclib (first compound 0.002 µM). In addition, the relative viability is 0.224 with Bortezomib + Palbociclib (first compound 0.006325 µM) and 0.19 with Bortezomib + Palbociclib (first compound 0.02 µM).

For SK-LU-1, the relative viability stood at 0.58 in experiment [1] (first compound 0.08 µM); 0.511 in experiment [1] (first compound 0.253 µM); 0.475 in experiment [1] (first compound 0.8 µM); 0.109 in experiment [1] (first compound 2.53 µM); 0.0429 in experiment [1] (first compound 8 µM); 0.742 with Bortezomib + Foretinib (first compound 0.0002 µM). The relative viability came out at 0.86 with Bortezomib + Foretinib (first compound 0.000632 µM); 0.67 in the experiment with Bortezomib + Foretinib (first compound 0.002 µM); 0.128 with Bortezomib + Foretinib (first compound 0.006325 µM); 0.112 with Bortezomib + Foretinib (first compound 0.02 µM); 0.861 with Obatoclax + Pemetrexed (first compound 0.01 µM); 0.984 with Obatoclax + Pemetrexed (first compound 0.03162 µM). Besides, the relative viability with Obatoclax + Pemetrexed (first compound 0.1 µM) stood at 0.937; with Obatoclax + Pemetrexed (first compound 0.3162 µM), 0.759; in the experiment with Obatoclax + Pemetrexed (first compound 1 µM) it was 0.415; with Bortezomib + Palbociclib (first compound 0.0002 µM) it was 0.387; with Bortezomib + Palbociclib (first compound 0.000632 µM), 0.361; in the experiment with Bortezomib + Palbociclib (first compound 0.002 µM) it was 0.359. Moreover, the relative viability with Bortezomib + Palbociclib (first compound 0.006325 µM) is 0.279; in the experiment with Bortezomib + Palbociclib (first compound 0.02 µM), 0.158.

Take SK-MES-1: the relative viability amounted to 0.664 in experiment [1] (first compound 0.08 µM); 0.682 in experiment [1] (first compound 0.253 µM); 0.601 in experiment [1] (first compound 0.8 µM); 0.147 in experiment [1] (first compound 2.53 µM); 0.124 in experiment [1] (first compound 8 µM); 1.01 with Bortezomib + Foretinib (first compound 0.0002 µM). Further, the relative viability with Bortezomib + Foretinib (first compound 0.000632 µM) was 0.946; in the experiment with Bortezomib + Foretinib (first compound 0.002 µM) it was 0.967; in the experiment with Bortezomib + Foretinib (first compound 0.006325 µM), 0.632; in the experiment with Bortezomib + Foretinib (first compound 0.02 µM), 0.241; in the experiment with Obatoclax + Pemetrexed (first compound 0.01 µM) it was 1.02; with Obatoclax + Pemetrexed (first compound 0.03162 µM), 0.904. Besides, the relative viability amounted to 0.874 in the experiment with Obatoclax + Pemetrexed (first compound 0.1 µM); 0.776 with Obatoclax + Pemetrexed (first compound 0.3162 µM); 0.292 with Obatoclax + Pemetrexed (first compound 1 µM); 0.317 with Bortezomib + Palbociclib (first compound 0.0002 µM); 0.321 in the experiment with Bortezomib + Palbociclib (first compound 0.000632 µM); 0.296 in the experiment with Bortezomib + Palbociclib (first compound 0.002 µM). Moreover, the relative viability came out at 0.159 with Bortezomib + Palbociclib (first compound 0.006325 µM) and 0.179 with Bortezomib + Palbociclib (first compound 0.02 µM).

Consider SW 900, for which the relative viability turned out to be 0.467 in experiment [1] (first compound 0.08 µM); 0.529 in experiment [1] (first compound 0.253 µM); 0.6 in experiment [1] (first compound 0.8 µM); 0.172 in experiment [1] (first compound 2.53 µM); 0.0691 in experiment [1] (first compound 8 µM); 0.87 in the experiment with Bortezomib + Foretinib (first compound 0.0002 µM). In addition, the relative viability worked out at 0.743 in the experiment with Bortezomib + Foretinib (first compound 0.000632 µM); 0.155 in the experiment with Bortezomib + Foretinib (first compound 0.002 µM); 0.119 with Bortezomib + Foretinib (first compound 0.006325 µM); 0.126 in the experiment with Bortezomib + Foretinib (first compound 0.02 µM); 0.494 with Obatoclax + Pemetrexed (first compound 0.01 µM); 0.303 in the experiment with Obatoclax + Pemetrexed (first compound 0.03162 µM). For the same cell line, the relative viability with Obatoclax + Pemetrexed (first compound 0.1 µM) was 0.527; with Obatoclax + Pemetrexed (first compound 0.3162 µM) it was 0.48; with Obatoclax + Pemetrexed (first compound 1 µM), 0.446; with Bortezomib + Palbociclib (first compound 0.0002 µM), 0.504; in the experiment with Bortezomib + Palbociclib (first compound 0.000632 µM) it was 0.37; with Bortezomib + Palbociclib (first compound 0.002 µM), 0.203. Further, the relative viability in the experiment with Bortezomib + Palbociclib (first compound 0.006325 µM) turned out to be 0.2; with Bortezomib + Palbociclib (first compound 0.02 µM), 0.195.

For SW 1573, the relative viability came to 0.412 in experiment [1] (first compound 0.08 µM); 0.337 in experiment [1] (first compound 0.253 µM); 0.319 in experiment [1] (first compound 0.8 µM); 0.152 in experiment [1] (first compound 2.53 µM); 0.0862 in experiment [1] (first compound 8 µM); 0.943 with Bortezomib + Foretinib (first compound 0.0002 µM). The relative viability with Bortezomib + Foretinib (first compound 0.000632 µM) was found to be 0.907; with Bortezomib + Foretinib (first compound 0.002 µM) it was 1.02; with Bortezomib + Foretinib (first compound 0.006325 µM) it was 0.327; with Bortezomib + Foretinib (first compound 0.02 µM), 0.0926; with Obatoclax + Pemetrexed (first compound 0.01 µM), 0.824; with Obatoclax + Pemetrexed (first compound 0.03162 µM), 0.938. The relative viability with Obatoclax + Pemetrexed (first compound 0.1 µM) stood at 0.887; with Obatoclax + Pemetrexed (first compound 0.3162 µM), 0.427; in the experiment with Obatoclax + Pemetrexed (first compound 1 µM), 0.196; with Bortezomib + Palbociclib (first compound 0.0002 µM), 0.346; in the experiment with Bortezomib + Palbociclib (first compound 0.000632 µM) it was 0.419; in the experiment with Bortezomib + Palbociclib (first compound 0.002 µM) it was 0.171. Also, the results for the relative viability in the experiment with Bortezomib + Palbociclib (first compound 0.006325 µM) and with Bortezomib + Palbociclib (first compound 0.02 µM) were 0.055 and 0.0399, respectively.

Take UMC-11: the relative viability in experiment [1] (first compound 0.08 µM) was determined as 0.348; in experiment [1] (first compound 0.253 µM) it was 0.289; in experiment [1] (first compound 0.8 µM), 0.279; in experiment [1] (first compound 2.53 µM), 0.137; in experiment [1] (first compound 8 µM), 0.131; with Bortezomib + Foretinib (first compound 0.0002 µM), 0.801. Moreover, the relative viability with Bortezomib + Foretinib (first compound 0.000632 µM) was determined as 0.97; with Bortezomib + Foretinib (first compound 0.002 µM), 0.96; with Bortezomib + Foretinib (first compound 0.006325 µM) it was 0.449; with Bortezomib + Foretinib (first compound 0.02 µM), 0.175; with Obatoclax + Pemetrexed (first compound 0.01 µM), 0.768; with Obatoclax + Pemetrexed (first compound 0.03162 µM), 0.808. Besides, the relative viability in the experiment with Obatoclax + Pemetrexed (first compound 0.1 µM) amounted to 0.82; with Obatoclax + Pemetrexed (first compound 0.3162 µM) it was 0.795; in the experiment with Obatoclax + Pemetrexed (first compound 1 µM), 0.433; with Bortezomib + Palbociclib (first compound 0.0002 µM), 0.3; in the experiment with Bortezomib + Palbociclib (first compound 0.000632 µM), 0.334; with Bortezomib + Palbociclib (first compound 0.002 µM), 0.294. The figures for the relative viability in the experiment with Bortezomib + Palbociclib (first compound 0.006325 µM) and in the experiment with Bortezomib + Palbociclib (first compound 0.02 µM) were 0.295 and 0.214, respectively.
